From PubChem BioAssay (NCI)
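Briefly, cells in 96-well plates were exposed to five compound concentrations for 48 h, and endpoints were estimated by linear interpolation. GI50 = concentration required for 50% inhibition of growth. The concentration for full growth arrest is given as TGI.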

What was measured:
Assay in all cases: NCI anticancer screen, dose series, 48 h
786-0 renal = system: 786-0 renal
A549 NSCLC = system: A549 NSCLC
ACHN renal = system: ACHN renal
BT-549 breast = system: BT-549 breast
CAKI-1 renal = system: CAKI-1 renal
CCRF-CEM leukemia = system: CCRF-CEM leukemia
COLO 205 colon = system: COLO 205 colon
DU-145 prostate = system: DU-145 prostate
EKVX NSCLC = system: EKVX NSCLC
HCC-2998 colon = system: HCC-2998 colon
HCT-116 colon = system: HCT-116 colon
HCT-15 colon = system: HCT-15 colon
HL-60(TB) leukemia = system: HL-60(TB) leukemia
HOP-62 NSCLC = system: HOP-62 NSCLC
HOP-92 NSCLC = system: HOP-92 NSCLC
HS 578T breast = system: HS 578T breast
HT29 colon = system: HT29 colon
IGROV1 ovarian = system: IGROV1 ovarian
K-562 leukemia = system: K-562 leukemia
KM12 colon = system: KM12 colon
LOX IMVI melanoma = system: LOX IMVI melanoma
M14 melanoma = system: M14 melanoma
MALME-3M melanoma = system: MALME-3M melanoma
MCF7 breast = system: MCF7 breast
MDA-MB-231 breast = system: MDA-MB-231 breast
MDA-MB-435 = system: MDA-MB-435
MOLT-4 leukemia = system: MOLT-4 leukemia
NCI-H226 lung = system: NCI-H226 lung
NCI-H23 lung = system: NCI-H23 lung
NCI-H460 lung = system: NCI-H460 lung
NCI-H522 lung = system: NCI-H522 lung
NCI/ADR-RES ovarian = system: NCI/ADR-RES ovarian
OVCAR-3 ovarian = system: OVCAR-3 ovarian
OVCAR-4 ovarian = system: OVCAR-4 ovarian
OVCAR-5 ovarian = system: OVCAR-5 ovarian
OVCAR-8 ovarian = system: OVCAR-8 ovarian
PC-3 prostate = system: PC-3 prostate
RPMI-8226 leukemia = system: RPMI-8226 leukemia
RXF 393 renal = system: RXF 393 renal
SF-268 CNS = system: SF-268 CNS
SF-539 CNS = system: SF-539 CNS
SK-MEL-2 melanoma = system: SK-MEL-2 melanoma
SK-MEL-28 melanoma = system: SK-MEL-28 melanoma
SK-MEL-5 melanoma = system: SK-MEL-5 melanoma
SK-OV-3 ovarian = system: SK-OV-3 ovarian
SN12C renal = system: SN12C renal
SNB-19 CNS = system: SNB-19 CNS
SNB-75 CNS = system: SNB-75 CNS
SW-620 colon = system: SW-620 colon
T-47D breast = system: T-47D breast
TK-10 renal = system: TK-10 renal
U251 CNS = system: U251 CNS
UACC-257 melanoma = system: UACC-257 melanoma
UACC-62 melanoma = system: UACC-62 melanoma
UO-31 renal = system: UO-31 renal
A498 renal = system: A498 renal
SF-295 CNS = system: SF-295 CNS

SMILES: CCOC(=O)c1c(C)n(-c2ccc(C)cc2)c(=O)c2ccccc2c(=O)c2c(=O)ccc(=O)c1=2
- TGI (786-0 renal): > 100 µM
- TGI (A549 NSCLC): 58.1 µM
- TGI (ACHN renal): 31.9 µM
- TGI (BT-549 breast): 57.9 µM
- TGI (CAKI-1 renal): 28.1 µM
- TGI (CCRF-CEM leukemia): > 100 µM
- TGI (COLO 205 colon): 36.1 µM
- TGI (DU-145 prostate): 39.3 µM
- TGI (EKVX NSCLC): 80 µM
- TGI (HCC-2998 colon): 27.7 µM
- TGI (HCT-116 colon): 33.3 µM
- TGI (HCT-15 colon): 35.1 µM
- TGI (HL-60(TB) leukemia): 40.8 µM
- TGI (HOP-62 NSCLC): 46 µM
- TGI (HOP-92 NSCLC): 38.2 µM
- TGI (HS 578T breast): 44.7 µM
- TGI (HT29 colon): 38.7 µM
- TGI (IGROV1 ovarian): > 100 µM
- TGI (K-562 leukemia): 32.1 µM
- TGI (KM12 colon): 30.3 µM
- TGI (LOX IMVI melanoma): 36.4 µM
- TGI (M14 melanoma): 42.9 µM
- TGI (MALME-3M melanoma): 32.5 µM
- TGI (MCF7 breast): 63.9 µM
- TGI (MDA-MB-231 breast): > 100 µM
- TGI (MDA-MB-435): 30.2 µM
- TGI (MOLT-4 leukemia): 11.4 µM
- TGI (NCI-H226 lung): 59.7 µM
- TGI (NCI-H23 lung): 32 µM
- TGI (NCI-H460 lung): 44.9 µM
- TGI (NCI-H522 lung): 42.6 µM
- TGI (NCI/ADR-RES ovarian): 58.4 µM
- TGI (OVCAR-3 ovarian): 29.8 µM
- TGI (OVCAR-4 ovarian): 58.5 µM
- TGI (OVCAR-5 ovarian): 75.5 µM
- TGI (OVCAR-8 ovarian): 33.6 µM
- TGI (PC-3 prostate): 56.6 µM
- TGI (RPMI-8226 leukemia): 24.9 µM
- TGI (RXF 393 renal): 41.3 µM
- TGI (SF-268 CNS): 54.2 µM
- TGI (SF-539 CNS): 43.7 µM
- TGI (SK-MEL-2 melanoma): 61 µM
- TGI (SK-MEL-28 melanoma): 27.1 µM
- TGI (SK-MEL-5 melanoma): 30.4 µM
- TGI (SK-OV-3 ovarian): 73.3 µM
- TGI (SN12C renal): 66.7 µM
- TGI (SNB-19 CNS): 51.7 µM
- TGI (SNB-75 CNS): 81.7 µM
- TGI (SW-620 colon): 49.9 µM
- TGI (T-47D breast): 72.2 µM
- TGI (TK-10 renal): 29.4 µM
- TGI (U251 CNS): 44.9 µM
- TGI (UACC-257 melanoma): 51.2 µM
- TGI (UACC-62 melanoma): 52 µM
- TGI (UO-31 renal): > 100 µM

SMILES: O=C1NC(=O)N(S(=O)(=O)c2cc(C(=O)Nc3ccc(Cl)cc3)c(Cl)cc2S)S(=O)(=O)N1
- GI50 (786-0 renal): 17.9 µM
- TGI (786-0 renal): 33.7 µM
- GI50 (A498 renal): 15.5 µM
- TGI (A498 renal): 30.1 µM
- GI50 (A549 NSCLC): 25.1 µM
- TGI (A549 NSCLC): 55.6 µM
- GI50 (ACHN renal): 21.6 µM
- TGI (ACHN renal): 43.7 µM
- GI50 (BT-549 breast): 20.5 µM
- TGI (BT-549 breast): 45.7 µM
- GI50 (CAKI-1 renal): 19 µM
- TGI (CAKI-1 renal): 35.4 µM
- GI50 (CCRF-CEM leukemia): 8.53 µM
- TGI (CCRF-CEM leukemia): 26.9 µM
- GI50 (COLO 205 colon): 11 µM
- TGI (COLO 205 colon): > 100 µM
- GI50 (DU-145 prostate): 16.5 µM
- TGI (DU-145 prostate): 31.2 µM
- GI50 (EKVX NSCLC): 18.3 µM
- TGI (EKVX NSCLC): 38.9 µM
- GI50 (HCC-2998 colon): 12.9 µM
- TGI (HCC-2998 colon): 30 µM
- GI50 (HCT-116 colon): 19.4 µM
- TGI (HCT-116 colon): 35.4 µM
- GI50 (HCT-15 colon): 18.9 µM
- TGI (HCT-15 colon): 36.5 µM
- GI50 (HOP-62 NSCLC): 18.3 µM
- TGI (HOP-62 NSCLC): 37.4 µM
- GI50 (HOP-92 NSCLC): 12.9 µM
- TGI (HOP-92 NSCLC): 44.3 µM
- GI50 (HS 578T breast): 21.1 µM
- TGI (HS 578T breast): 55.4 µM
- GI50 (HT29 colon): 23.8 µM
- TGI (HT29 colon): > 100 µM
- GI50 (IGROV1 ovarian): 24.1 µM
- TGI (IGROV1 ovarian): 51.6 µM
- GI50 (K-562 leukemia): 12.3 µM
- TGI (K-562 leukemia): 34.1 µM
- GI50 (KM12 colon): 18.6 µM
- TGI (KM12 colon): 34.8 µM
- GI50 (LOX IMVI melanoma): 17 µM
- TGI (LOX IMVI melanoma): 34.3 µM
- GI50 (M14 melanoma): 16.2 µM
- TGI (M14 melanoma): 31.6 µM
- GI50 (MCF7 breast): 23.6 µM
- TGI (MCF7 breast): 91.8 µM
- GI50 (MDA-MB-231 breast): 25.2 µM
- TGI (MDA-MB-231 breast): 74.5 µM
- GI50 (MDA-MB-435): 18.5 µM
- TGI (MDA-MB-435): 34.3 µM
- GI50 (MOLT-4 leukemia): 19.4 µM
- TGI (MOLT-4 leukemia): 47.6 µM
- GI50 (NCI-H226 lung): 22.2 µM
- TGI (NCI-H226 lung): 56.1 µM
- GI50 (NCI-H23 lung): 18.5 µM
- TGI (NCI-H23 lung): 34.3 µM
- GI50 (NCI-H460 lung): 16.3 µM
- TGI (NCI-H460 lung): 40.3 µM
- GI50 (NCI-H522 lung): 21.1 µM
- TGI (NCI-H522 lung): 50.6 µM
- GI50 (NCI/ADR-RES ovarian): 28.1 µM
- TGI (NCI/ADR-RES ovarian): 85.6 µM
- GI50 (OVCAR-3 ovarian): 19.2 µM
- TGI (OVCAR-3 ovarian): 36.1 µM
- GI50 (OVCAR-4 ovarian): 24.2 µM
- TGI (OVCAR-4 ovarian): > 100 µM
- GI50 (OVCAR-5 ovarian): 19.4 µM
- TGI (OVCAR-5 ovarian): 35.3 µM
- GI50 (OVCAR-8 ovarian): 24.8 µM
- TGI (OVCAR-8 ovarian): 64.4 µM
- GI50 (PC-3 prostate): 17.8 µM
- TGI (PC-3 prostate): 52 µM
- GI50 (RPMI-8226 leukemia): 17.7 µM
- TGI (RPMI-8226 leukemia): 55.7 µM
- GI50 (RXF 393 renal): 0.67 µM
- TGI (RXF 393 renal): 18.2 µM
- GI50 (SF-268 CNS): 16.9 µM
- TGI (SF-268 CNS): 46.6 µM
- GI50 (SF-295 CNS): 23.4 µM
- TGI (SF-295 CNS): 43.1 µM
- GI50 (SF-539 CNS): 19.7 µM
- TGI (SF-539 CNS): 39.3 µM
- GI50 (SK-MEL-2 melanoma): 27.7 µM
- TGI (SK-MEL-2 melanoma): 66.1 µM
- GI50 (SK-MEL-28 melanoma): 14.6 µM
- TGI (SK-MEL-28 melanoma): > 100 µM
- GI50 (SK-MEL-5 melanoma): 13.1 µM
- TGI (SK-MEL-5 melanoma): 28.5 µM
- GI50 (SN12C renal): 21.9 µM
- TGI (SN12C renal): 50.2 µM
- GI50 (SNB-75 CNS): 38.9 µM
- TGI (SNB-75 CNS): > 100 µM
- GI50 (SW-620 colon): 20.4 µM
- TGI (SW-620 colon): 44.5 µM
- GI50 (T-47D breast): 6.65 µM
- TGI (T-47D breast): 55.7 µM
- GI50 (TK-10 renal): 23.8 µM
- TGI (TK-10 renal): 45.5 µM
- GI50 (U251 CNS): 15.1 µM
- TGI (U251 CNS): 34.3 µM
- GI50 (UACC-257 melanoma): 17.5 µM
- TGI (UACC-257 melanoma): 37.1 µM
- GI50 (UACC-62 melanoma): 6.67 µM
- TGI (UACC-62 melanoma): 23.6 µM
- GI50 (UO-31 renal): 19.6 µM
- TGI (UO-31 renal): 46.5 µM
